Several values for one entry are separate records, joined by “and”; a condition that tells them apart may be missing. Equal entries are not always repeated. Inconclusive results and toxic doses are left out. No stated cut-off is given here; in the data, active means T/C of 150% or more; inactive means T/C below 125%.
Test system: L1210 leukemia ip in BDF1 mice, survival T/C
Assay: NCI In Vivo Anticancer Drug Screen. Data for tumor model L1210 Leukemia (intraperitoneal) in B6D2F1 (BDF1) mice
Details: endpoint: mean survival time, higher = longer survival
In short: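 Antitumor effect is assessed in tumor-bearing animals. Survival in the compound arm is compared with a vehicle-dosed control arm and expressed as their quotient.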

[1] = dose: 100.0 mg/kg/injection, schedule: Q04DX002 (ip), vehicle: Klucel (hydroxypropylcellulose) (HPC)
[2] = dose: 100.0 mg/kg/injection, schedule: Q04DX002 (ip), vehicle: saline with Tween-80
[3] = dose: 200.0 mg/kg/injection, schedule: Q04DX002 (ip), vehicle: saline with Tween-80
[4] = dose: 400.0 mg/kg/injection, schedule: Q04DX002 (ip), vehicle: saline with Tween-80
[5] = dose: 100.0 mg/kg/injection, schedule: Q01DX001 (ip), vehicle: saline
[6] = dose: 200.0 mg/kg/injection, schedule: Q01DX001 (ip), vehicle: saline
[7] = dose: 100.0 mg/kg/injection, schedule: Q01DX Z (ip), vehicle: methylcellulose (MC)
[8] = dose: 200.0 mg/kg/injection, schedule: Q01DX Z (ip), vehicle: methylcellulose (MC)
[9] = dose: 400.0 mg/kg/injection, schedule: Q01DX001 (ip), vehicle: saline
[10] = dose: 50.0 mg/kg/injection, schedule: Q01DX001 (ip), vehicle: carboxymethylcellulose (CMC)
[11] = dose: 100.0 mg/kg/injection, schedule: Q01DX001 (ip), vehicle: carboxymethylcellulose (CMC)
[12] = dose: 25.0 mg/kg/injection, schedule: Q04DX003 (ip), vehicle: saline with Tween-80

Measured: T/C

Fc1c(F)c(F)c(P(c2ccccc2)c2ccccc2)c(F)c1F
inactive: [1] 95 % of control | dose: 200.0 mg/kg/injection, schedule: Q04DX002 (ip), vehicle: Klucel (hydroxypropylcellulose) (HPC) 95 % of control | dose: 400.0 mg/kg/injection, schedule: Q04DX002 (ip), vehicle: Klucel (hydroxypropylcellulose) (HPC) 111 % of control

CSc1cccc(NC2=NCCO2)c1
inactive: dose: 50.0 mg/kg/injection, schedule: Q04DX002 (ip), vehicle: saline with Tween-80 103 % of control | [2] 98 % of control | [3] 88 % of control | [4] 95 % of control

O=C(Cc1ccccc1)C(Cl)c1ccccc1 (configuration not stated)
inactive: [5] 94 % of control | [6] 105 % of control

Cc1ccc(Nc2cc(=S)nc(N)[nH]2)cc1
inactive: [7] 93 % of control | [8] 86 % of control

Clc1ccccc1-c1nc2ccccc2cc1Br
inactive: [5] 97 % of control | [6] 96 % of control | [9] 92 % of control

O=c1[nH]c(=O)[nH]c(=S)[nH]1
inactive: [7] 98 % of control | [8] 87 % of control

COc1cc(OC)cc(C(=O)NCCCl)c1
inactive: [10] 101 % of control | [11] 110 % of control | dose: 200.0 mg/kg/injection, schedule: Q01DX001 (ip), vehicle: carboxymethylcellulose (CMC) 107 % of control | dose: 400.0 mg/kg/injection, schedule: Q01DX001 (ip), vehicle: carboxymethylcellulose (CMC) 107 % of control

Cc1c2oc3c(C)ccc(C(=O)OCCN4CCCC4)c3nc-2c(C(=O)OCCN2CCCC2)c(N)c1=O
inactive: [2] 98 % of control | [3] 106 % of control | [4] 98 % of control

C(OC[C@H]1CC[C@@H](COCC2CO2)O1)C1CO1 (some centres not stated)
inactive: [5] 112 % of control | dose: 108.0 mg/kg/injection, schedule: Q01DX007 (ip), vehicle: saline 120 % of control | dose: 178.0 mg/kg/injection, schedule: Q01DX001 (ip), vehicle: saline 106 % of control and 110 % of control | [6] 109 % of control | dose: 267.0 mg/kg/injection, schedule: Q01DX001 (ip), vehicle: saline 114 % of control and 115 % of control | [9] 114 % of control | dose: 600.0 mg/kg/injection, schedule: Q01DX001 (ip), vehicle: saline 98 % of control

CN(CC1CNc2nc(N)[nH]c(=O)c2N1C)c1ccc(C(=O)NC(CCC(=O)O)C(=O)O)cc1 (configuration not stated)
inactive: [5] 94 % of control | [6] 102 % of control | [9] 94 % of control

O=C(COc1cc(Cl)c(Cl)cc1Cl)Nc1ccc([N+](=O)[O-])cc1Cl
inactive: [2] 102 % of control | [3] 109 % of control | [4] 98 % of control

O=C(c1ccccc1)c1[nH]c2ccccc2c1-c1ccccc1
inactive: [2] 103 % of control | [3] 107 % of control | [4] 100 % of control

O=CNC1(CO)CCCCC1
inactive: dose: 75.0 mg/kg/injection, schedule: Q01DX001 (ip), vehicle: saline 105 % of control | dose: 150.0 mg/kg/injection, schedule: Q01DX001 (ip), vehicle: saline 102 % of control | dose: 300.0 mg/kg/injection, schedule: Q01DX001 (ip), vehicle: saline 96 % of control

COc1ccc(/C=C/[N+](=O)[O-])cc1O
inactive: dose: 25.0 mg/kg/injection, schedule: Q01DX009 (ip), vehicle: saline 110 % of control | dose: 25.0 mg/kg/injection, schedule: Q04DX003 (ip), vehicle: saline 98 % of control | dose: 50.0 mg/kg/injection, schedule: Q01DX009 (ip), vehicle: saline 102 % of control | dose: 50.0 mg/kg/injection, schedule: Q04DX003 (ip), vehicle: saline 98 % of control | dose: 100.0 mg/kg/injection, schedule: Q04DX003 (ip), vehicle: saline 100 % of control | dose: 200.0 mg/kg/injection, schedule: Q04DX003 (ip), vehicle: saline 86 % of control

Nc1ccc(CCCCc2ccc(Cl)cc2Cl)cc1
inactive: dose: 50.0 mg/kg/injection, schedule: Q01DX001 (ip), vehicle: Klucel (hydroxypropylcellulose) (HPC) 100 % of control | dose: 50.0 mg/kg/injection, schedule: Q01DX009 (ip), vehicle: saline with Tween-80 96 % of control | dose: 100.0 mg/kg/injection, schedule: Q01DX001 (ip), vehicle: Klucel (hydroxypropylcellulose) (HPC) 94 % of control | dose: 100.0 mg/kg/injection, schedule: Q01DX009 (ip), vehicle: saline with Tween-80 102 % of control | dose: 200.0 mg/kg/injection, schedule: Q01DX001 (ip), vehicle: Klucel (hydroxypropylcellulose) (HPC) 109 % of control

COc1nc2ccccc2n1C1OC(CO)C(O)C1O (configuration not stated)
inactive: [5] 97 % of control | [6] 100 % of control | [9] 105 % of control

CC(C)(C)CC(C)(C)c1ccc(OCCOCCSC(=N)N)cc1
inactive: [10] 93 % of control | [11] 98 % of control

C=C(Br)CNC(N)=S
inactive: dose: 50.0 mg/kg/injection, schedule: Q01DX009 (ip), vehicle: Klucel (hydroxypropylcellulose) (HPC) 96 % of control | dose: 100.0 mg/kg/injection, schedule: Q01DX009 (ip), vehicle: Klucel (hydroxypropylcellulose) (HPC) 100 % of control | dose: 100.0 mg/kg/injection, schedule: Q04DX003 (ip), vehicle: Klucel (hydroxypropylcellulose) (HPC) 94 % of control | dose: 200.0 mg/kg/injection, schedule: Q01DX009 (ip), vehicle: Klucel (hydroxypropylcellulose) (HPC) 102 % of control | dose: 200.0 mg/kg/injection, schedule: Q04DX003 (ip), vehicle: Klucel (hydroxypropylcellulose) (HPC) 95 % of control

Cc1ccc(N=Cc2cc(Br)cc(Br)c2O)cc1.Cc1ccc(N=Cc2cc(Br)cc(Br)c2O)cc1.[Co]
inactive: [12] 104 % of control | dose: 50.0 mg/kg/injection, schedule: Q04DX003 (ip), vehicle: saline with Tween-80 100 % of control | dose: 100.0 mg/kg/injection, schedule: Q04DX003 (ip), vehicle: saline with Tween-80 100 % of control

CC(=O)OCCSC#N
inactive: dose: 12.5 mg/kg/injection, schedule: Q04DX003 (ip), vehicle: saline with Tween-80 98 % of control | [12] 97 % of control

CC(=O)NC(CCSCc1c2ccccc2c(C)c2c1ccc1ccccc12)C(=O)O (configuration not stated)
inactive: dose: 200.0 mg/kg/injection, schedule: Q01DX009 (ip), vehicle: saline with Tween-80 92 % of control | dose: 400.0 mg/kg/injection, schedule: Q01DX009 (ip), vehicle: saline with Tween-80 90 % of control

Cc1cnnn1-c1cccc(C(F)(F)F)c1
inactive: dose: 25.0 mg/kg/injection, schedule: Q04DX002 (ip), vehicle: Klucel (hydroxypropylcellulose) (HPC) 92 % of control | dose: 50.0 mg/kg/injection, schedule: Q04DX002 (ip), vehicle: Klucel (hydroxypropylcellulose) (HPC) 92 % of control | [1] 99 % of control and 88 % of control

Nc1ccc(OCCNC(=O)c2ccc(S(=O)(=O)F)cc2)c(Cl)c1
inactive: dose: 100.0 mg/kg/injection, schedule: Q01DX001 (ip), vehicle: saline with Tween-80 94 % of control | dose: 200.0 mg/kg/injection, schedule: Q01DX001 (ip), vehicle: saline with Tween-80 89 % of control | dose: 400.0 mg/kg/injection, schedule: Q01DX001 (ip), vehicle: saline with Tween-80 96 % of control

Cc1ccc(NC(=O)c2ccc(C)c([N+](=O)[O-])c2)c(C)c1
inactive: dose: 100.0 mg/kg/injection, schedule: Q01DX009 (sc), vehicle: olive oil, sesame oil, peanut oil 86 % of control | dose: 100.0 mg/kg/injection, schedule: Q04DX003 (sc), vehicle: olive oil, sesame oil, peanut oil 100 % of control | dose: 200.0 mg/kg/injection, schedule: Q01DX009 (sc), vehicle: olive oil, sesame oil, peanut oil 94 % of control | dose: 200.0 mg/kg/injection, schedule: Q04DX003 (sc), vehicle: olive oil, sesame oil, peanut oil 105 % of control | dose: 400.0 mg/kg/injection, schedule: Q01DX009 (sc), vehicle: olive oil, sesame oil, peanut oil 89 % of control | dose: 400.0 mg/kg/injection, schedule: Q04DX003 (sc), vehicle: olive oil, sesame oil, peanut oil 97 % of control
